pIC50: −log10 of the molar value.
Columns and labels:
[1] = tested on: PKB Ser473 phosphorylation in Rat1-myr-HA-p110 delta cells; assay: Reverse protein array assay, PKB Ser473 phosphorylation in Rat1-myr-p110 delta cells; type: cell-based; settings: read-out: p-PKB IC50
How it was run: (§1)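 Lysates were arrayed at four dilutions, and phospho-PKB Ser473 was quantified by relative fluorescence signal. They came from Rat1-myr-HA-p110 alpha, beta or delta cells exposed for 30 min at 37 °C to an 8-point compound series with 0.2% DMSO constant.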

[2] = tested on: PKB Ser473 phosphorylation in Rat1-myr-HA-p110 alpha cells; assay: Reverse protein array assay, PKB Ser473 phosphorylation in Rat1-myr-p110 alpha cells; type: cell-based; settings: 0.5 h, pAkt Ser473, 30 minutes compound incubation, read-out: p-PKB IC50
How it was run: as §1

[3] = tested on: PKB Ser473 phosphorylation in Rat1-myr-HA-p110 beta cells; assay: Reverse protein array assay, PKB Ser473 phosphorylation in Rat1-myr-p110 beta cells; type: cell-based; settings: 0.5 h, pAkt Ser473, 30 minutes incubation, read-out: p-PKB IC50
How it was run: as §1

[4] = molecular target: T1, mTOR (Homo sapiens, UniProt P42345); assay: Biochemical assay for m-TOR by TR-FRET; settings: 8 μM ATP, 400 nM GFP-4EBP1, 0.5 nM mTOR
T1 construct: purchased Invitrogen Corporation (Carlsbad/CA, USA) PV4753
How it was run: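 mTOR (0.5 nM) was incubated at rt with ATP (8 μM final) and GFP-4EBP1 (400 nM final) in 50 mM HEPES pH 7.5, 10 mM MnCl2, 50 mM NaCl, 1 mM EGTA, 1 mM DTT. EDTA stop with Tb3+-anti-p4EBP1 [pThr46] antibody (0.5 nM); TR-FRET read 15 min later.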

T1 sequence (P42345 1360-2549 limits assumed): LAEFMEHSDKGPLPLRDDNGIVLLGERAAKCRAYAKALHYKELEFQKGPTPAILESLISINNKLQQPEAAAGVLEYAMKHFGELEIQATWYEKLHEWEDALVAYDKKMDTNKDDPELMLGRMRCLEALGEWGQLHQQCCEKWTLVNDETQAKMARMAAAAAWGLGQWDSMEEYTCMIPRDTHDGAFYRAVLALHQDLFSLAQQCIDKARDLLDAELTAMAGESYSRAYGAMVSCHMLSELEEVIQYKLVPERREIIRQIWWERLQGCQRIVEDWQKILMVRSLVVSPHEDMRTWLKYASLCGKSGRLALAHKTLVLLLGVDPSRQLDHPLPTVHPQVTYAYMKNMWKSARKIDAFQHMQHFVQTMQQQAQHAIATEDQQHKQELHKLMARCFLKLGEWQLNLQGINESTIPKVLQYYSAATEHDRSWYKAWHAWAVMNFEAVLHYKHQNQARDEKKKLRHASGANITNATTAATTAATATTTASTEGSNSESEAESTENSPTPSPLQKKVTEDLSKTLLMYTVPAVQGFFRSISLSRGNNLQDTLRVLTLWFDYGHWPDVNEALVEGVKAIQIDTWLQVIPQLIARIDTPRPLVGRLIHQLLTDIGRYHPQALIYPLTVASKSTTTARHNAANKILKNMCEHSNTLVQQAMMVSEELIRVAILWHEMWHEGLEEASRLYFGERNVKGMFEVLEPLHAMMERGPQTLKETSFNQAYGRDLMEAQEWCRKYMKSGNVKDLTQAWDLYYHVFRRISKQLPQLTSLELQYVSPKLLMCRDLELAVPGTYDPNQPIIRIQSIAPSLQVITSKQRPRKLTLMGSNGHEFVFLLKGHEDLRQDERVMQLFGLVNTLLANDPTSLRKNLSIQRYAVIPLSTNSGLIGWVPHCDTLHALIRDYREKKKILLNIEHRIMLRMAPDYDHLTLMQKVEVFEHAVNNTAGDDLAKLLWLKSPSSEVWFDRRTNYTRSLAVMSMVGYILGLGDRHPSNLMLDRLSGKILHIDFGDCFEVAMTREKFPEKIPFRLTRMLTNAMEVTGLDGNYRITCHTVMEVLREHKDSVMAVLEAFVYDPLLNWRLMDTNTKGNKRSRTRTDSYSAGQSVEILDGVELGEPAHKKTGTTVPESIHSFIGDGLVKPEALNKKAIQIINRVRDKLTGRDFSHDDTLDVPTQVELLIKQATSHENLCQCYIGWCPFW

SMILES	pIC50 [1]	pIC50 [2]	pIC50 [3]	pIC50 [4]
CCOc1ccc(-c2ccc3ncc4c(c3c2)n(-c2c(C)nn(C)c2C)c(=O)n4C)cc1OC [Example 29.2, 8-(4-Ethoxy-3-methoxy-phenyl)-3-methyl-1-(1,3,5-trimethyl-1H-pyrazol-4-yl)-1,3-dihydro-midazo[4,5-c]quinolin-2-one]	6.63	7.30	6.84	6.11
COCCOc1ccc(-c2ccc3ncc4c(c3c2)n(-c2cn(C)nc2C)c(=O)n4C)cc1OC [Example 30.1, 1-(1,3-Dimethyl-1H-pyrazol-4-yl)-8-[3-methoxy-4-(2-methoxy-ethoxy)-phenyl]-3-methyl-1,3-dihydro-imidazo[4,5-c]quinolin-2-one]	7.04	7.52	7.42	7.28
CNC(=O)c1ccc(-c2ccc3ncc4c(c3c2)n(-c2cn(C)nc2C)c(=O)n4C)cc1 [Example 43.1, 4-[1-(1,3-Dimethyl-1H-pyrazol-4-yl)-3-methyl-2-oxo-2,3-dihydro-1H-imidazo[4,5-c]quinolin-8-yl]-N-methyl-benzamide]	7.34	7.85	7.96	> 8.52
Cc1nn(C)cc1-n1c(=O)n(C)c2cnc3ccc(-c4cncc(N)c4)cc3c21 [Example 45.1, 8-(5-Amino-pyridin-3-yl)-1-(1,3-dimethyl-1H-pyrazol-4-yl)-3-methyl-1,3-dihydro-imidazo[4,5-c]quinolin-2-one]	6.81	7.22	7.10	8.15
Cc1nn(CC(=O)N(C)C)cc1-n1c(=O)n(C)c2cnc3ccc(-c4ccc(-n5cccn5)cc4)cc3c21 [Example 51.2, N,N-Dimethyl-2-{3-methyl-4-[3-methyl-2-oxo-8-(4-pyrazol-1-yl-phenyl)-2,3-dihydro-imidazo[4,5-c]quinolin-1-yl]-pyrazol-1-yl}-acetamide]	7.66	7.82	8.22	> 8.52
CCOc1ncc(-c2ccc3ncc4c(c3c2)n(-c2cn(C)nc2C)c(=O)n4C)cn1 [Example 52, 1-(1,3-Dimethyl-1H-pyrazol-4-yl)-8-(2-ethoxy-pyrimidin-5-yl)-3-methyl-1,3-dihydro-imidazo[4,5-c]quinolin-2-one]	7.02	8.22	8.05	7.13
COCc1cncc(-c2ccc3ncc4c(c3c2)n(-c2cn(C)nc2Cl)c(=O)n4C)c1 [Example 54.2, 1-(3-Chloro-1-methyl-1H-pyrazol-4-yl)-8-(5-methoxymethyl-pyridin-3-yl)-3-methyl-1,3-dihydro-imidazo[4,5-c]quinolin-2-one]	7.36	7.38	7.37	7.03
CCOc1cncc(-c2ccc3ncc4c(c3c2)n(-c2cn(C)nc2C)c(=O)n4C)c1 [Example 56.1, 1-(1,3-Dimethyl-1H-pyrazol-4-yl)-8-(5-ethoxy-pyridin-3-yl)-3-methyl-1,3-dihydro-imidazo[4,5-c]quinolin-2-one]	7.30	7.80	7.54	7.82
CCn1cc(-n2c(=O)n(C)c3cnc4ccc(-c5cncc(OC(C)C)c5)cc4c32)c(C)n1 [Example 58.4, 1-(1-Ethyl-3-methyl-1H-pyrazol-4-yl)-8-(5-isopropoxy-pyridin-3-yl)-3-methyl-1,3-dihydro-imidazo[4,5-c]quinolin-2-one]	7.07	7.60	6.86	7.51
COCCOc1cncc(-c2ccc3ncc4c(c3c2)n(-c2cn(C)nc2C)c(=O)n4C)c1 [Example 59.1, 1-(1,3-Dimethyl-1H-pyrazol-4-yl)-8-[5-(2-methoxy-ethoxy)-pyridin-3-yl]-3-methyl-1,3-dihydro-imidazo[4,5-c]quinolin-2-one]	6.69	6.90	6.58	7.02
Cc1nn(C)cc1-n1c(=O)n(C)c2cnc3ccc(-c4cncc(OCC5CC5)c4)cc3c21 [Example 61, 8-(5-Cyclopropylmethoxy-pyridin-3-yl)-1-(1,3-dimethyl-1H-pyrazol-4-yl)-3-methyl-1,3-dihydro-imidazo[4,5-c]quinolin-2-one]	6.61	7.89	7.55	7.19
Cc1nn(C)c(C)c1-n1c(=O)n(C)c2cnc3ccc(-c4cnc(N)nc4)cc3c21 [Example 81.2, 8-(2-Amino-pyrimidin-5-yl)-3-methyl-1-(1,3,5-trimethyl-1H-pyrazol-4-yl)-1,3-dihydro-imidazo[4,5-c]quinolin-2-one]	6.42	6.66	6.53	6.49
CCOc1cc(-c2ccc3ncc4c(c3c2)n(-c2cn(C)nc2C)c(=O)n4C)cnc1C [Example 85.1, 1-(1,3-Dimethyl-1H-pyrazol-4-yl)-8-(5-ethoxy-6-methyl-pyridin-3-yl)-3-methyl-1,3-dihydro-imidazo[4,5-c]quinolin-2-one]	7.48	> 8.30	8.22	7.77
Cc1ncc(-c2ccc3ncc4c(c3c2)n(-c2cn(C)nc2Cl)c(=O)n4C)cc1N [Example 88.1, 8-(5-Amino-6-methyl-pyridin-3-yl)-1-(3-chloro-1-methyl-1H-pyrazol-4-yl)-3-methyl-1,3-dihydro-imidazo[4,5-c]quinolin-2-one]	7.82	> 8.30	8.10	8.10
CCOc1cc(-c2ccc3ncc4c(c3c2)n(-c2cn(C)nc2C)c(=O)n4C)ccn1 [Example 91, 1-(1,3-Dimethyl-1H-pyrazol-4-yl)-8-(2-ethoxy-pyridin-4-yl)-3-methyl-1,3-dihydro-imidazo[4,5-c]quinolin-2-one]	6.20	6.63	6.41	6.29
COc1ccc(-c2ccc3ncc4c(c3c2)n(-c2cn(CCO)nc2C)c(=O)n4C)cn1 [Example 103.1, 1-[1-(2-Hydroxy-ethyl)-3-methyl-1H-pyrazol-4-yl]-8-(6-methoxy-pyridin-3-yl)-3-methyl-1,3-dihydro-imidazo[4,5-c]quinolin-2-one]	7.18	7.33	7.52	7.68
CCOc1ccc(-c2ccc3ncc4c(c3c2)n(-c2cn(CCO)nc2C)c(=O)n4C)cn1 [Example 103.2, 8-(6-Ethoxy-pyridin-3-yl)-1-[1-(2-hydroxy-ethyl)-3-methyl-1H-pyrazol-4-yl]-3-methyl-1,3-dihydro-imidazo[4,5-c]quinolin-2-one]	6.97	8.15	7.85	7.66
CCOc1ccc(-c2ccc3ncc4c(c3c2)n(-c2cn(CC(=O)N(C)CC)nc2C)c(=O)n4C)cn1 [Example 136, 2-{4-[8-(6-Ethoxy-pyridin-3-yl)-3-methyl-2-oxo-2,3-dihydro-imidazo[4,5-c]quinolin-1-yl]-3-methyl-pyrazol-1-yl}-N-ethyl-N-methyl-acetamide]	7.18	7.96	7.80	8.05
COCCN(C)C(=O)Cn1cc(-n2c(=O)n(C)c3cnc4ccc(-c5ccccc5)cc4c32)c(C)n1 [Example 137, N-(2-Methoxy-ethyl)-N-methyl-2-[3-methyl-4-(3-methyl-2-oxo-8-phenyl-2,3-dihydro-imidazo[4,5-c]quinolin-1-yl)-pyrazol-1-yl]-acetamide]	6.23	6.49	6.37	6.49
CCOc1ccc(-c2ccc3ncc4c(c3c2)n(-c2cn(CC(=O)N3CCC3)nc2C)c(=O)n4C)cn1 [Example 138, 1-[1-(2-Azetidin-1-yl-2-oxo-ethyl)-3-methyl-1H-pyrazol-4-yl]-8-(6-ethoxy-pyridin-3-yl)-3-methyl-1,3-dihydro-imidazo[4,5-c]quinolin-2-one]	7.24	7.44	7.42	8.00
CCN(CC)C(=O)Cn1cc(-n2c(=O)n(C)c3cnc4ccc(-c5ccc(C)nc5)cc4c32)c(C)n1 [Example 139, N,N-Diethyl-2-{3-methyl-4-[3-methyl-8-(6-methyl-pyridin-3-yl)-2-oxo-2,3-dihydro-imidazo[4,5-c]quinolin-1-yl]-pyrazol-1-yl}-acetamide]	7.15	7.28	7.41	7.68
CNc1ncc(-c2ccc3ncc4c(c3c2)n(-c2cn(C)nc2C)c(=O)n4C)cc1C(F)(F)F [Example 144.3, 1-(1,3-Dimethyl-1H-pyrazol-4-yl)-3-methyl-8-(6-methylamino-5-trifluoromethyl-pyridin-3-yl)-1,3-dihydro-imidazo[4,5-c]quinolin-2-one]	7.96	> 8.30	> 8.30	8.52
CNc1ncc(-c2ccc3ncc4c(c3c2)n(-c2cn(C)nc2C)c(=O)n4C)cc1Cl [Example 146.1, 8-(5-Chloro-6-methylamino-pyridin-3-yl)-1-(1,3-dimethyl-1H-pyrazol-4-yl)-3-methyl-1,3-dihydro-imidazo[4,5-c]quinolin-2-one]	7.62	> 8.30	8.05	> 8.52
